The values that follow come from patent publication US4010261A, “Method to prevent reproduction with [Des-Gly]^10 -GN-RH nonadeptide amide analogs in position” (Abbott Laboratories, priority 1974, dated 1977).

For one assay, the system named is pregnant rats. The experiment in a line: Implantation in pregnant rats with various compounds under Compound N (Examples 7-10). It is filed as in vivo, rat. Here is the method: a) number of animals with implants/number of animals treated
b) mean implantation sites (based on those with implantation sites)
c) viable fetuses/total number of fetuses (successful pregnancy)
In this experiment, the activity of various compounds encompassed under Compound N are desmonstrated. Groups of 8 - 10 pregnant rats were injected subcutaneously b.i.d. with 0.5 ml. of the medium shown in Example 1 containing the compound and dose identified below. The results are expressed as explained in Example 2.

The subject of assay [1] is rats treated with Compound N. The experiment in a line: Exogenous estradiol given to Compound N-treated pregnant rats. It is filed as in vivo, rat. As to conditions: estradiol 0.1 μg. s.c. in sesame oil on days 4 and 5 of gestation, rats treated with Compound N days 2-6. How it is done: More specifically, if estradiol is subcutaneously given to rats treated with Compound N (days 2 - 6 of gestation) on days 4 and 5 of gestation at a dose of as little as 0.1 μg. each (dissolved in sesame oil), implantation already takes place in 3 of 8 animals, producing 100% viable embryos.

With `CCNC(=O)[C@@H]1CCCN1C(=O)[C@H](CCCNC(=N)N)NC(=O)[C@H](CC(C)C)NC(=O)[C@@H](C)NC(=O)[C@H](Cc1ccc(O)cc1)NC(=O)[C@H](CO)NC(=O)[C@H](Cc1c[nH]c2ccccc12)NC(=O)[C@H](Cc1c[nH]cn1)NC(=O)[C@@H]1CCC(=O)N1` [Example 8, L-pGlu-L-His-L-Trp-L-Ser-L-Tyr-X-L-Leu-L-Arg-L-Pro-NH-R], in the assay on pregnant rats (Dose 10 μg. s.c. b.i.d.), the “a: number of animals with implants/number of animals treated” value is recorded as 0/10, the “b: mean implantation sites (based on those with implantation sites)” value amounted to 0 and the “c: viable fetuses/total number of fetuses (successful pregnancy)” value is reported as 0%.

Consider `C[C@]12CC[C@@H]3c4ccc(O)cc4CC[C@H]3[C@@H]1CC[C@@H]2O` [estradiol], for which, in assay [1], the “animals in which implantation takes place” value was 3 of 8 and the viable embryos was found to be 100%.

With `CNC(=O)[C@@H]1CCCN1C(=O)[C@H](CCCNC(=N)N)NC(=O)[C@H](CC(C)C)NC(=O)[C@@H](CC(C)C)NC(=O)[C@H](Cc1ccc(O)cc1)NC(=O)[C@H](CO)NC(=O)[C@H](Cc1c[nH]c2ccccc12)NC(=O)[C@H](Cc1c[nH]cn1)NC(=O)[C@@H]1CCC(=O)N1` [Example 10, L-pGlu-L-His-L-Trp-L-Ser-L-Tyr-X-L-Leu-L-Arg-L-Pro-NH-R], in the assay with pregnant rats (Dose 25 μg. s.c. b.i.d.), the “a: number of animals with implants/number of animals treated” value is given as 0/10, the “b: mean implantation sites (based on those with implantation sites)” value worked out at 0 and the “c: viable fetuses/total number of fetuses (successful pregnancy)” value was found to be 0%.
